From ChEMBL document CHEMBL1150728, “Antimalarial agents, 4. Synthesis of a brusatol analog and biological activity of brusatol-related compounds” (1987)
Converted amounts (≈) assume the structure as drawn.

Test system: Plasmodium falciparum
Assay: Antimicrobial activity against chloroquine-resistant Plasmodium falciparum Smith
Assay type: functional
Settings: read-out: ED50 (the source's name)

**Q.** `CCCCCC/C=C/C(=O)O[C@H]1C(=O)O[C@@H]2C[C@H]3C(C)=C(O)C(=O)C[C@]3(C)[C@H]3[C@@H](O)[C@H](O)[C@@]4(C(=O)OC)OC[C@]32[C@@H]14` was tested. Which EC50 did it give?
**A.** 0.0617 µg/mL (≈ 0.107 µM)

**Q.** With `COC(=O)[C@@]12OC[C@]34[C@H]([C@@H](O)[C@@H]1O)[C@@]1(C)CC(=O)C(O)=C(C)[C@@H]1C[C@H]3OC(=O)[C@H](O)[C@@H]24` [BRUCEOLIDE] as the compound, how does the EC50 read?
**A.** 0.0752 µg/mL (≈ 0.172 µM)

**Q.** How did the EC50 turn out when `COC(=O)[C@@]12OC[C@]34[C@H]([C@@H](O)[C@@H]1O)[C@@]1(C)C=C(O[C@@H]5O[C@H](CO)[C@@H](O)[C@H](O)[C@H]5O)C(=O)[C@@H](C)[C@@H]1C[C@H]3OC(=O)[C@H](OC(=O)C=C(C)C)[C@@H]24` [BRUCEOSIDE A] was run?
**A.** 0.581 µg/mL (≈ 0.851 µM)

**Q.** For `COC(=O)[C@]12OC[C@]34[C@H]([C@@H](O)[C@@H]1O)[C@@]1(C)CC(=O)C(O)=C(C)[C@@H]1C[C@H]3OC(=O)[C@H](OC(=O)C=C(C)C)[C@@H]24` [BRUSATOL], which EC50 is on record?
**A.** 0.00758 µg/mL (≈ 0.0146 µM)
